Laboratory results taken from US11345675B2, “Compound, anti-allergy drug, and mediator release inhibitor” (LAIMU CORPORATION, priority 2018, dated 2022).
“Also recorded” adds a separate entry of the source.

How the values were obtained:
[1] = test system: rat basophilic leukemia cells RBL-2H3; experiment: Degranulation inhibiting test (β-hexosaminidase release induced by antigen-antibody reaction); assay type: cell-based; settings: RBL-2H3 cells, anti-DNP-IgE/DNP-HSA stimulation; compounds 1, 2 and 6-sPalm-AA-2G at 40, 60 or 80 μM, oxatomide 75 μM; FIG. 1
Procedure: In this Example, the compound 1 and the compound 2 were evaluated in terms of the effect thereof to inhibit degranulation to be induced by stimulation of an antigen-antibody reaction. Degranulation was quantified based on, as an index, β-hexosaminidase release from rat basophilic leukemia cells RBL-2H3. Specifically, β-hexosaminidase is an enzyme released through degranulation of mast cells or basocytes, and through enzymatic reaction with a substrate, p-nitrophenyl-2-acetamide-2-deoxy-β-glucopyranoside, this increases the absorbance at 405 nm of the reaction liquid. Here, the degranulation inhibiting effect was evaluated from the absorbance change as an index of β-hexosaminidase release amount (degree of degranulation).
The compound 1 and the compound 2 were individually dissolved in a 0.25% dimethyl sulfoxide-containing MT buffer at a concentration of 40 μM, 60 μM or 80 μM to prepare solutions to be evaluation samples. On the other hand, as comparative samples, 6-sPalm-AA-2G was dissolved in a 0.25% dimethyl sulfoxide-containing MT buffer at a concentration of 40 μM, 60 μM or 80 μM to prepare solutions, and oxatomide was dissolved in a 0.25% dimethyl sulfoxide-containing MT buffer at a concentration of 75 μM to prepare a solution. […]

[2] = test system: PCA (passive cutaneous anaphylaxis) reaction; experiment: PCA reaction inhibition test (Evans blue dye leakage in auricle); assay type: in vivo; settings: applied to auricle of ICR male mice, 90 nmol/auricle (6-sPalm-AA-2G 150 nmol/auricle), 3.5 hours before DNP-HSA-Evans blue i.v.; FIG. 2
Procedure: In this Example, the anti-allergy activity of the compound 1 and the compound 2 was evaluated based on, as an index, the inhibiting effect thereof against PCA (passive cutaneous anaphylaxis) reaction. PCA reaction is a series of cell reaction of an allergy reaction including immobilization of mast cells via an Fc part of immunoglobulin, antigen-antibody reaction on the cells, release of inflammatory mediator from the mast cells through the reaction and promotion of vascular permeability. Here, after an anti-DNP-IgE antibody solution has been subcutaneously administered to a test body, a solution containing a 2,4-dinitrophenyl group (DNP)-labeled human serum albumin (HSA) and a dye (Evans blue) (DNP-HSA-Evans blue solution) is intravenously administered, and the vascular permeability increase according to the antigen-antibody reaction is quantified by the absorbance increase owing to dye leakage from the blood vessel to the tissue to thereby evaluate the PCA reaction inhibiting effect. […]
An aqueous 1 N potassium hydroxide solution (0.5 mL) was added to the thus-cut auricle, and shaken at 37° C. overnight. After shaking, a mixed solution (3.25 mL) of aqueous 0.34 M phosphoric acid solution/acetone=13/5 (v/v) was added, and centrifuged by 700×g at 4° C. for 20 minutes, and the absorbance at 620 nm of the supernatant was measured. […]

SMILES | β-hexosaminidase release inhibition ratio (degranulation inhibition ratio) [1] | dye leakage (relative absorbance at 620 nm, control = 100) [2]
CCCCCCCCCCCCCCCC(=O)OC[C@H](O)[C@H]1OC(=O)C(OC)=C1O [compound 1] | greatly higher than the degranulation inhibition ratio of the system added with 6-sPalm-AA-2G, and surpasses the degranulation inhibition ratio of the system added with oxatomide | lower than the dye leakage in the system with 6-sPalm-AA-2G
CCCCCCCCCCCCCCCC(=O)NC[C@H](O)[C@H]1OC(=O)C(OC)=C1O [compound 2] | greatly higher than the degranulation inhibition ratio of the system added with 6-sPalm-AA-2G, and surpasses the degranulation inhibition ratio of the system added with oxatomide; also recorded: tends to have a higher degranulation inhibiting effect than the compound 1 | lower than the dye leakage in the system with 6-sPalm-AA-2G; also recorded: suppressed more than that in the system where oxatomide had been applied; also recorded: tends to have a higher anti-allergy activity than the compound 1
